Entries after “also recorded” stand apart in the source; their conditions may differ.
Tests used:
[1] = test system: Human proximal tubules formed on 2D solid surfaces; assay: Transport assays with fluorescent substrates in tubules formed on 2D solid surfaces; type: cell-based; conditions: 20 h incubation, lucifer yellow 80 μM, rhodamine 123 10 μM, 5,6-carboxyfluorescein 5 μM, BODIPY FL verapamil 5 μM
Method: Transport assays: Tubules formed 1-2 weeks after seeding were cultivated in phenol red-free medium supplemented with 80 μM of lucifer yellow (Sigma Aldrich Chemical Corp, Singapore), 10 μM of rhodamine 123 (Invitrogen, Singapore), 5 μM of 5,6-carboxydichlorofluorescein diacetate (5,6-carboxyfluorescein) (Invitrogen) or 5 μM of BODIPY FL verapmil (Invitrogen). Tubules were fixed after 20 h of incubation, and subsequently stained with 4′,6′-diamidino-2′-phenylindole (DAPI).
FIG. 11: Organic anion transport. Human proximal tubules formed on 2D solid surfaces were incubated for 20 h with the organic anions lucifer yellow (A, B; green), rhodamine 123 (C; red), 5,6-carboxyfluorescein (D; green) and BODIPY FL verapamil (F; green). Tubules are fixed before imaging, and the cell nuclei are counterstained with DAPI (blue). […] The arrowhead points to a region that is enlarged in the inset. The DAPI-stained nuclei of the outer cell layer are on the right in the inset. […] Scale bars: 100 μm.

[2] = test system: primary rabbit renal proximal tubule cells; conditions: added to confluent rabbit cell cultures for at least 72 hours; TGF-β1 10 ng/ml, EGF 1 nM, RA 0.1 μM; cited from earlier work
[3] = test system: primary human renal proximal tubule cells (HPTCs); assay: TGF-β1 treatment of confluent HPTC patches in Humes basal medium; type: cell-based; conditions: 10 ng/ml TGF-β1 on confluent patches in Humes basal medium
Method: The Humes et al. method used primary rabbit proximal tubule cells. The references indicate three factors are necessary in the growth medium for 2D tubulogenesis: (i) transforming growth factor (TGF)-β1; (ii) epidermal growth factor (EGF); and all-trans retinoic acid (RA). The method involves cultivation of primary rabbit renal proximal tubule cells in the following medium: Dulbecco's modified Eagle's:Ham's F-12 media (1:1, v/v) containing L-glutamine, penicillin, streptomycin, 50 nM hydrocortisone, 5 μg/ml of insulin, and 5 μg/ml of transferrin, referred to herein as Humes basal medium.
In a second set of experiments cells were again cultivated in Humes basal medium. In accordance with the previous results, massive cell death occurred although some cells survived and formed some confluent patches after 2 weeks. By this time cell growth was very slow and overall confluency could not be achieved. However, the confluent patches were treated with 10 ng/ml TGF-β1 in accordance with the Humes et al. method.

[4] = test system: primary human renal proximal tubule cells (HPTCs); assay: TGF-β1 treatment of confluent HPTC monolayers in complete HPTC medium; type: cell-based
Method: Cell culture: Different batches of HPTCs were obtained from ScienCell Research Laboratories (Carlsbad, Calif., USA). Cells were cultivated in basal epithelial cell medium supplemented with 2% fetal bovine serum (FBS) and 1% epithelial cell growth supplement (ScienCell Research Laboratories). In some experiments, TGF-β1 (R&D Systems, Minneapolis, Minn., USA) was added at a concentration of 10 ng/ml after monolayer formation.
FIG. 17: Growth factor expression and effects of TGF-β1. (A) The expression levels of TGF-β1, α-SMA, LIF, FGF2, KGF and HGF are monitored over a period of 4 weeks. […] Panels B-D show the cells treated for 3 days with 10 ng/ml TGF-β1 after monolayer formation. […] Scale bar: 500
A fourth experimental series was performed with our HPTC medium containing all supplements including FBS. HPTCs were grown to confluency and then treated with TGF-β1 (10 ng/ml; same concentration as used for the rabbit cells). After three days massive cords and aggregates of cells with an elongated, myofibroblastic morphology had formed in 6/6 wells. Although in the complete HPTC medium with FBS, cords and cell aggregates also form without the addition of extra TGF-β1, such structures formed more consistently after addition of TGF-β1. […]

Row | Molecule | localisation of the fluorescent substrate after incubation (transport across tubular epithelium) [1] | structures formed from confluent monolayer [2] | also measured
1 | rhodamine 123 | became enriched in the tubular lumen | – | localisation of the fluorescent substrate after incubation (transport across tubular epithelium) ([1]; listed as Rhodamine 123): enriched in the tubular lumen
2 | CC1=C(/C=C/C(C)=C/C=C/C(C)=C/C(=O)O)C(C)(C)CCC1 [RA, all-trans retinoic acid] | – | no dramatic effects on the monolayer | –
3 | lucifer yellow | the lumen is strongly labeled; also recorded: became enriched in the tubular lumen | – | –
4 | 5,6-carboxydichlorofluorescein diacetate [5,6-carboxyfluorescein] | enriched in the tubular interior; also recorded: became enriched in the tubular lumen | – | –
5 | EGF: epidermal growth factor (NSDSECPLSHDGYCLHDGVCMYIEALDKYACNCVVGYIGERCQYRDLKWWELR; UniProt P01133 971-1023, looked up) | – | no dramatic effects on the monolayer | –
6 | TGF-β1: transforming growth factor β1 (R&D Systems), 10 ng/ml | – | formation of solid aggregates of adherent cells (no lumen) | effect on the monolayer, cord and tubule formation [3]: no obvious effect on the monolayer and no cord and tubule formation was observed; wells with massive cords and aggregates of cells of myofibroblastic morphology ([4]; 10 ng/ml TGF-β1, after three days, complete HPTC medium with FBS): 6/6; effect on the monolayer ([4]; 10 ng/ml TGF-β1 for 3 days after monolayer formation): induces rearrangements leading to the formation of condensed stripes of cells and areas devoid of cells; also recorded: rearrangement of the monolayer into a condensed stripe of cells and to the formation of cell aggregates
7 | BODIPY FL verapamil | enriched in the cytoplasm of tubular and monolayer cells | – | localisation of the fluorescent substrate after incubation (transport across tubular epithelium) ([1]; listed as BOPIPY FL verapamil): became enriched within the cells
